Test systems include HCT-116 colon; IGROV1 ovarian; SF-295 CNS; HOP-92 NSCLC; OVCAR-3 ovarian; HOP-62 NSCLC; PC-3 prostate; MDA-MB-231 breast; TK-10 renal; SF-268 CNS.
Experiment in all cases: growth of human tumour cells (NCI), 48 h

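Briefly, cells in 96-well plates were exposed to five compound concentrations for 48 h, and endpoints were estimated by linear interpolation. At the GI50, growth is halved. TGI is the concentration that stops growth completely.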

`CC(C)(C)OC(=O)N1CCN(CCn2cc(C(F)(F)F)c3c(Cl)ncnc32)CC1`: the GI50 in the assay on HCT-116 colon was 1.68 µM; with IGROV1 ovarian, 1.84 µM; in the assay on SF-295 CNS, 14.5 µM; in the assay with HOP-92 NSCLC, 3.12 µM; with OVCAR-3 ovarian, 1.88 µM; in the assay on HOP-62 NSCLC, 2.19 µM. The GI50 is 1.79 µM with PC-3 prostate, 11.1 µM with MDA-MB-231 breast, 19.7 µM with TK-10 renal and 1.82 µM in the assay on SF-268 CNS. Moreover, the TGI is 3.15 µM in the assay on HCT-116 colon; 3.74 µM in the assay on IGROV1 ovarian; 28.1 µM in the assay on SF-295 CNS; 10.9 µM in the assay on HOP-92 NSCLC; 3.66 µM with OVCAR-3 ovarian; 4.91 µM in the assay on HOP-62 NSCLC. Also, the TGI in the assay on PC-3 prostate was 3.43 µM; in the assay on MDA-MB-231 breast it was 27.5 µM; with TK-10 renal it was 42.8 µM; in the assay with SF-268 CNS, 3.61 µM.

On to `Nc1c(C(=O)c2cccc(-c3ccncc3)c2)cnn1-c1ccc(F)cc1F`, for which the GI50 in the assay on HCT-116 colon was 6.25 µM; in the assay with IGROV1 ovarian, 9.98 µM; in the assay with SF-295 CNS, 8.36 µM; in the assay on HOP-92 NSCLC, 4.71 µM; in the assay with OVCAR-3 ovarian, 9.08 µM; in the assay with HOP-62 NSCLC, 9.3 µM. For the same compound, the GI50 in the assay with PC-3 prostate was 4.83 µM; with MDA-MB-231 breast it was 15.2 µM; with TK-10 renal, above 15 µM; in the assay with SF-268 CNS it was above 19.7 µM. Further, the TGI in the assay with HCT-116 colon was above 25 µM; with IGROV1 ovarian it was above 25 µM; with SF-295 CNS, above 25 µM; in the assay on HOP-92 NSCLC it was above 22.9 µM; in the assay with OVCAR-3 ovarian, above 25 µM; in the assay with HOP-62 NSCLC, above 25 µM. Besides, the TGI in the assay with PC-3 prostate, with MDA-MB-231 breast, in the assay on TK-10 renal and in the assay with SF-268 CNS was above 25 µM in each case.

For the compound `c1ccc2[nH]c(-c3ccc(-c4nccc5c4[nH]c4ccccc45)cc3)nc2c1`, the GI50 was 2.83 µM in the assay on HCT-116 colon; 4.73 µM in the assay on IGROV1 ovarian; 1.92 µM in the assay with SF-295 CNS; 2.06 µM in the assay with HOP-92 NSCLC; 1.8 µM with OVCAR-3 ovarian; 2.8 µM with HOP-62 NSCLC. Moreover, the GI50 in the assay on PC-3 prostate was 8.59 µM; with MDA-MB-231 breast it was 2.39 µM; in the assay with TK-10 renal, 2.07 µM; with SF-268 CNS, 2.89 µM. Also, the TGI in the assay with HCT-116 colon came out at 10.4 µM; in the assay on IGROV1 ovarian, 22.4 µM; in the assay with SF-295 CNS, 4 µM; with HOP-92 NSCLC, 5.79 µM; in the assay on OVCAR-3 ovarian, 3.64 µM; in the assay on HOP-62 NSCLC, 10.8 µM. The TGI amounted to 25.1 µM in the assay with PC-3 prostate, 5.83 µM in the assay with MDA-MB-231 breast, 4.59 µM with TK-10 renal and 10.2 µM in the assay with SF-268 CNS.

On to `Cc1c(C(N)=O)sc2c1C(=O)N(Cc1ccccc1)C1=NN=C(c3ccc(Cl)cc3)CN12`, for which the GI50 in the assay with HCT-116 colon was 3.44 µM; with IGROV1 ovarian it was 3.13 µM; in the assay on SF-295 CNS, 2.31 µM; in the assay on HOP-92 NSCLC it was 3.89 µM; with OVCAR-3 ovarian it was 3.75 µM; in the assay on HOP-62 NSCLC, 3.62 µM. The GI50 is 3.84 µM in the assay on PC-3 prostate, 3.54 µM in the assay on MDA-MB-231 breast, 6.52 µM with TK-10 renal and 2.63 µM in the assay on SF-268 CNS. For the same compound, the TGI with HCT-116 colon stood at 14.5 µM; in the assay with IGROV1 ovarian, 22.3 µM; with SF-295 CNS, 14.7 µM; in the assay with HOP-92 NSCLC, 14.7 µM; in the assay with OVCAR-3 ovarian it was 16.4 µM; in the assay on HOP-62 NSCLC it was 18.5 µM. In addition, the TGI was determined as 20.9 µM with PC-3 prostate, 16 µM with MDA-MB-231 breast, 18.9 µM with TK-10 renal and 14.1 µM in the assay on SF-268 CNS.

Take `CCC1C2Cc3ccc(O)cc3C1(CC)CCN2C` (configuration not stated): the TGI with HCT-116 colon, in the assay on IGROV1 ovarian, in the assay on SF-295 CNS, with HOP-92 NSCLC, in the assay on OVCAR-3 ovarian and in the assay with HOP-62 NSCLC was above 100 µM each time. Also, the TGI in the assay on PC-3 prostate, with MDA-MB-231 breast, with TK-10 renal and in the assay on SF-268 CNS was above 100 µM in each case.

Regarding `Cc1cc(O)c(C(C)C)cc1S(=O)(=O)O` (tested in a mixture with another compound), the GI50 was 0.343 µM in the assay with HCT-116 colon; 0.554 µM with IGROV1 ovarian; 0.281 µM with SF-295 CNS; 0.188 µM in the assay on HOP-92 NSCLC; 0.259 µM in the assay on OVCAR-3 ovarian; 0.442 µM in the assay on HOP-62 NSCLC. Further, the GI50 with PC-3 prostate was 0.318 µM; in the assay on MDA-MB-231 breast it was 0.377 µM; in the assay on TK-10 renal it was 1.22 µM; with SF-268 CNS it was 0.797 µM. Further, the values for the TGI with HOP-92 NSCLC, with PC-3 prostate and in the assay on MDA-MB-231 breast were 1.66 µM, 9.01 µM and 1.65 µM, respectively.

On to `C=C(C)C(=O)Nc1ccc(NC(C)C)cc1`, for which the GI50 in the assay with HCT-116 colon, in the assay with IGROV1 ovarian, with SF-295 CNS, in the assay on HOP-92 NSCLC, in the assay with OVCAR-3 ovarian and in the assay on HOP-62 NSCLC was above 100 µM each time. For the same compound, the GI50 in the assay with PC-3 prostate, in the assay on MDA-MB-231 breast, in the assay with TK-10 renal and in the assay with SF-268 CNS was above 100 µM each time. Further, the TGI in the assay with HCT-116 colon, in the assay with IGROV1 ovarian, in the assay with SF-295 CNS, in the assay with HOP-92 NSCLC, in the assay on OVCAR-3 ovarian and in the assay on HOP-62 NSCLC was above 100 µM in each case. In addition, the TGI in the assay with PC-3 prostate, with MDA-MB-231 breast, with TK-10 renal and in the assay on SF-268 CNS was above 100 µM throughout.

On to `COc1cc(/C=C/C(=O)c2cccc(Nc3nc(Nc4ccccc4)nc(Nc4ccccc4)n3)c2)cc(OC)c1OC`, for which the GI50 in the assay with HCT-116 colon was 2.68 µM; with IGROV1 ovarian it was 3.22 µM; in the assay on SF-295 CNS it was 2.58 µM; in the assay with HOP-92 NSCLC, 1.36 µM; with OVCAR-3 ovarian it was 4.49 µM; with HOP-62 NSCLC, 23.5 µM. Further, the GI50 in the assay on PC-3 prostate is 2.19 µM; in the assay with MDA-MB-231 breast, 11.7 µM; with TK-10 renal it was 63.9 µM; with SF-268 CNS it was 13.8 µM. The TGI in the assay on HCT-116 colon is above 66.6 µM; in the assay on IGROV1 ovarian, above 100 µM; with HOP-92 NSCLC it was above 31.2 µM; in the assay on OVCAR-3 ovarian, 56 µM; in the assay on HOP-62 NSCLC, above 94.5 µM; in the assay with PC-3 prostate, above 100 µM. The TGI in the assay on MDA-MB-231 breast, in the assay on TK-10 renal and in the assay on SF-268 CNS was above 100 µM throughout.
